From PubChem BioAssay AID248 (DTP/NCI, 2004)
Values joined by “and” are separate entries in the source; they are usually repeats but may differ in a detail not shown here. Equal entries are not always repeated. Toxic doses and inconclusive results are not listed.

System: L1210 leukemia ip in BDF1 mice, survival T/C
Test: NCI In Vivo Anticancer Drug Screen. Data for tumor model L1210 Leukemia (intraperitoneal) in B6D2F1 (BDF1) mice
Conditions: higher = longer survival
How it was run: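 In this screen, tumor-bearing mice given compound are compared to those given vehicle, and their survival values are reported as a treated-to-control quotient.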

[1] = endpoint: mean survival time, dose: 100.0 mg/kg/injection, schedule: Q04DX002 (ip), vehicle: Klucel (hydroxypropylcellulose) (HPC)
[2] = endpoint: mean survival time, dose: 200.0 mg/kg/injection, schedule: Q04DX002 (ip), vehicle: Klucel (hydroxypropylcellulose) (HPC)
[3] = endpoint: mean survival time, dose: 400.0 mg/kg/injection, schedule: Q04DX002 (ip), vehicle: Klucel (hydroxypropylcellulose) (HPC)
[4] = endpoint: mean survival time, dose: 100.0 mg/kg/injection, schedule: Q01DX009 (ip), vehicle: saline with Tween-80
[5] = endpoint: mean survival time, dose: 200.0 mg/kg/injection, schedule: Q01DX009 (ip), vehicle: saline with Tween-80
[6] = endpoint: mean survival time, dose: 400.0 mg/kg/injection, schedule: Q01DX009 (ip), vehicle: saline with Tween-80
[7] = endpoint: mean survival time, dose: 100.0 mg/kg/injection, schedule: Q04DX003 (ip), vehicle: Klucel (hydroxypropylcellulose) (HPC)

Compound: COc1cccc2c1C(=O)c1c(O)c3c(c(O)c1C2=O)CC(O)(C(=O)CO)CC3OC1CC(N)C(O)C(C)O1 (stereo unspecified)
- T/C (endpoint: mean survival time, dose: 0.5 mg/kg/injection, schedule: Q01DX008 (ip), vehicle: saline): 151 % of control
- T/C (endpoint: mean survival time, dose: 1.0 mg/kg/injection, schedule: Q01DX008 (ip), vehicle: saline): 158 % of control
- T/C (endpoint: mean survival time, dose: 2.0 mg/kg/injection, schedule: Q01DX008 (ip), vehicle: saline): 209 % of control
- T/C (endpoint: mean survival time, dose: 4.0 mg/kg/injection, schedule: Q01DX008 (ip), vehicle: saline): 98 % of control
- T/C (endpoint: median survival time, dose: 4.0 mg/kg/injection, schedule: Q01DX005 (ip), vehicle: water): 121 % of control
- T/C (endpoint: median survival time, dose: 6.0 mg/kg/injection, schedule: Q01DX005 (ip), vehicle: other): 115 % of control
- T/C (endpoint: median survival time, dose: 11.0 mg/kg/injection, schedule: Q01DX005 (ip), vehicle: other): 123 % of control
- T/C (endpoint: median survival time, dose: 11.0 mg/kg/injection, schedule: Q01DX005 (ip), vehicle: water): 177 % of control
- T/C (endpoint: median survival time, dose: 11.0 mg/kg/injection, schedule: Q04DX003 (ip), vehicle: water): 115 % of control
- T/C (endpoint: median survival time, dose: 16.0 mg/kg/injection, schedule: Q01DX005 (ip), vehicle: other): 123 % of control
- T/C (endpoint: median survival time, dose: 19.0 mg/kg/injection, schedule: Q01DX005 (ip), vehicle: water): 177 % of control
- T/C (endpoint: median survival time, dose: 31.0 mg/kg/injection, schedule: Q01DX005 (ip), vehicle: water): 155 % of control
- T/C (endpoint: median survival time, dose: 31.0 mg/kg/injection, schedule: Q04DX003 (ip), vehicle: water): 121 % of control
- T/C (endpoint: median survival time, dose: 51.6 mg/kg/injection, schedule: Q01DX005 (ip), vehicle: water): 152 % of control
- T/C (endpoint: median survival time, dose: 52.0 mg/kg/injection, schedule: Q04DX003 (ip), vehicle: water): 194 % of control
- T/C (endpoint: median survival time, dose: 87.0 mg/kg/injection, schedule: Q04DX003 (ip), vehicle: water): 157 % of control and 172 % of control
- T/C (endpoint: median survival time, dose: 145.0 mg/kg/injection, schedule: Q04DX003 (ip), vehicle: water): 110 % of control
- T/C (endpoint: median survival time, dose: 242.0 mg/kg/injection, schedule: Q04DX003 (ip), vehicle: water): 89 % of control

Compound: N#CCC(=O)N/N=C/c1cc(Cl)cc(Cl)c1O
- T/C (endpoint: mean survival time, dose: 100.0 mg/kg/injection, schedule: Q04DX002 (ip), vehicle: saline with Tween-80): 108 % of control
- T/C (endpoint: mean survival time, dose: 200.0 mg/kg/injection, schedule: Q04DX002 (ip), vehicle: saline with Tween-80): 97 % of control
- T/C (endpoint: mean survival time, dose: 400.0 mg/kg/injection, schedule: Q04DX002 (ip), vehicle: saline with Tween-80): 93 % of control

Compound: CC(CCOC(=O)c1ccccc1)=C(c1ccccc1)c1ccccc1
- T/C [1]: 107 % of control
- T/C [2]: 95 % of control
- T/C [3]: 95 % of control

Compound: C/C([O-])=C(/c1nc(-c2ccc([N+](=O)[O-])o2)no1)[n+]1cc(C)ccc1C
- T/C [1]: 95 % of control
- T/C [2]: 91 % of control
- T/C [3]: 87 % of control

Compound: CCN(CCC#N)C(=S)Nc1cccc2ccccc12
- T/C (endpoint: mean survival time, dose: 100.0 mg/kg/injection, schedule: Q01DX009 (ip), vehicle: Klucel (hydroxypropylcellulose) (HPC)): 102 % of control
- T/C (endpoint: mean survival time, dose: 200.0 mg/kg/injection, schedule: Q01DX009 (ip), vehicle: Klucel (hydroxypropylcellulose) (HPC)): 101 % of control
- T/C (endpoint: mean survival time, dose: 400.0 mg/kg/injection, schedule: Q01DX009 (ip), vehicle: Klucel (hydroxypropylcellulose) (HPC)): 104 % of control

Compound: NC(=O)c1ccccc1NC(=O)Nc1ccc([N+](=O)[O-])cc1Cl
- T/C [4]: 98 % of control
- T/C (endpoint: mean survival time, dose: 100.0 mg/kg/injection, schedule: Q04DX003 (ip), vehicle: saline with Tween-80): 95 % of control
- T/C [5]: 102 % of control
- T/C (endpoint: mean survival time, dose: 200.0 mg/kg/injection, schedule: Q04DX003 (ip), vehicle: saline with Tween-80): 96 % of control
- T/C [6]: 98 % of control
- T/C (endpoint: mean survival time, dose: 400.0 mg/kg/injection, schedule: Q04DX003 (ip), vehicle: saline with Tween-80): 95 % of control

Compound: O=[N+]([O-])c1ccc(O)c(CN(Cc2ccccc2)Cc2c(O)ccc3ccccc23)c1
- T/C (endpoint: mean survival time, dose: 100.0 mg/kg/injection, schedule: Q01DX001 (ip), vehicle: carboxymethylcellulose (CMC)): 98 % of control
- T/C (endpoint: mean survival time, dose: 200.0 mg/kg/injection, schedule: Q01DX001 (ip), vehicle: carboxymethylcellulose (CMC)): 93 % of control
- T/C (endpoint: mean survival time, dose: 400.0 mg/kg/injection, schedule: Q01DX001 (ip), vehicle: carboxymethylcellulose (CMC)): 96 % of control

Compound: CCCCCCCCCCCCCCCCOc1ccc(CC)cc1
- T/C [7]: 91 % of control

Compound: CCOc1ccc2c(ccc(/C=C\c3ccc(O)c4ccccc34)[n+]2C)c1
- T/C (endpoint: mean survival time, dose: 15.0 mg/kg/injection, schedule: Q01DX001 (ip), vehicle: saline): 96 % of control
- T/C (endpoint: mean survival time, dose: 30.0 mg/kg/injection, schedule: Q01DX001 (ip), vehicle: saline): 96 % of control
- T/C (endpoint: mean survival time, dose: 60.0 mg/kg/injection, schedule: Q01DX001 (ip), vehicle: saline): 97 % of control
- T/C (endpoint: mean survival time, dose: 75.0 mg/kg/injection, schedule: Q01DX001 (ip), vehicle: saline): 106 % of control
- T/C (endpoint: mean survival time, dose: 150.0 mg/kg/injection, schedule: Q01DX001 (ip), vehicle: saline): 101 % of control

Compound: Fc1c(F)c(C(F)(F)F)c(F)c(F)c1P(c1c(F)c(F)c(C(F)(F)F)c(F)c1F)c1c(F)c(F)c(C(F)(F)F)c(F)c1F
- T/C (endpoint: mean survival time, dose: 75.0 mg/kg/injection, schedule: Q01DX009 (ip), vehicle: Klucel (hydroxypropylcellulose) (HPC)): 123 % of control
- T/C [7]: 97 % of control
- T/C (endpoint: mean survival time, dose: 150.0 mg/kg/injection, schedule: Q01DX009 (ip), vehicle: Klucel (hydroxypropylcellulose) (HPC)): 96 % of control
- T/C (endpoint: mean survival time, dose: 200.0 mg/kg/injection, schedule: Q04DX003 (ip), vehicle: Klucel (hydroxypropylcellulose) (HPC)): 100 % of control
- T/C (endpoint: mean survival time, dose: 300.0 mg/kg/injection, schedule: Q01DX009 (ip), vehicle: Klucel (hydroxypropylcellulose) (HPC)): 100 % of control
- T/C (endpoint: mean survival time, dose: 400.0 mg/kg/injection, schedule: Q04DX003 (ip), vehicle: Klucel (hydroxypropylcellulose) (HPC)): 100 % of control

Compound: CCC1CN2CCc3cc(OC)c(OC)cc3C2CC1CC1c2cc(OC)c(OC)cc2CCN1C(=O)C1CCCN1 (stereo unspecified)
- T/C (endpoint: mean survival time, dose: 50.0 mg/kg/injection, schedule: Q01DX001 (ip), vehicle: saline): 95 % of control
- T/C (endpoint: mean survival time, dose: 100.0 mg/kg/injection, schedule: Q01DX001 (ip), vehicle: saline): 111 % of control
- T/C (endpoint: mean survival time, dose: 200.0 mg/kg/injection, schedule: Q01DX001 (ip), vehicle: saline): 95 % of control

Compound: CNc1ncnc2c1c(Br)cn2C1OC(CO)C(O)C1O (stereo unspecified)
- T/C (endpoint: mean survival time, dose: 5.0 mg/kg/injection, schedule: Q01DX001 (ip), vehicle: saline): 104 % of control
- T/C (endpoint: mean survival time, dose: 10.0 mg/kg/injection, schedule: Q01DX001 (ip), vehicle: saline): 104 % of control
- T/C (endpoint: mean survival time, dose: 20.0 mg/kg/injection, schedule: Q01DX001 (ip), vehicle: saline): 104 % of control

Compound: CCC(=O)c1ccccc1NC(C)=O
- T/C [4]: 97 % of control
- T/C [5]: 96 % of control
- T/C [6]: 101 % of control

Compound: ClCCOCOCCCl
- T/C (endpoint: mean survival time, dose: 20.0 mg/kg/injection, schedule: Q04DX003 (ip), vehicle: Klucel (hydroxypropylcellulose) (HPC)): 104 % of control
- T/C (endpoint: mean survival time, dose: 40.0 mg/kg/injection, schedule: Q04DX003 (ip), vehicle: Klucel (hydroxypropylcellulose) (HPC)): 104 % of control
- T/C (endpoint: mean survival time, dose: 80.0 mg/kg/injection, schedule: Q04DX003 (ip), vehicle: Klucel (hydroxypropylcellulose) (HPC)): 101 % of control

Compound: O=C(C(O)C(O)C(O)C(O)CO)N1CCC(c2ccccc2)(c2ccccc2)CC1 (stereo unspecified)
- T/C (endpoint: mean survival time, dose: 100.0 mg/kg/injection, schedule: Q01DX003 (ip), vehicle: saline): 91 % of control
- T/C (endpoint: mean survival time, dose: 200.0 mg/kg/injection, schedule: Q01DX003 (ip), vehicle: saline): 94 % of control
- T/C (endpoint: mean survival time, dose: 400.0 mg/kg/injection, schedule: Q01DX003 (ip), vehicle: saline): 87 % of control

Compound: COC(=O)C1=C(O)C(=O)N(c2ccccc2)C1
- T/C (endpoint: mean survival time, dose: 100.0 mg/kg/injection, schedule: Q01DX001 (ip), vehicle: saline with Tween-80): 88 % of control

Compound: O=C1OC(=O)C2C1C1C=CC2C12CC2 (stereo unspecified)
- T/C (endpoint: mean survival time, dose: 50.0 mg/kg/injection, schedule: Q01DX009 (ip), vehicle: saline with Tween-80): 97 % of control
- T/C [4]: 102 % of control
- T/C [5]: 105 % of control

Compound: CCCCCCN(CCCCCC)C1=C(Cl)C(=O)c2ccccc2C1=O
- T/C (endpoint: mean survival time, dose: 12.5 mg/kg/injection, schedule: Q01DX001 (ip), vehicle: carboxymethylcellulose (CMC)): 97 % of control
- T/C (endpoint: mean survival time, dose: 25.0 mg/kg/injection, schedule: Q01DX001 (ip), vehicle: carboxymethylcellulose (CMC)): 103 % of control
- T/C (endpoint: mean survival time, dose: 50.0 mg/kg/injection, schedule: Q01DX001 (ip), vehicle: carboxymethylcellulose (CMC)): 96 % of control

Compound: OC1(c2ccccc2)C=C(c2ccccc2)C=C(c2ccccc2)O1 (stereo unspecified)
- T/C (endpoint: mean survival time, dose: 50.0 mg/kg/injection, schedule: Q01DX001 (ip), vehicle: Klucel (hydroxypropylcellulose) (HPC)): 87 % of control
- T/C (endpoint: mean survival time, dose: 100.0 mg/kg/injection, schedule: Q01DX001 (ip), vehicle: Klucel (hydroxypropylcellulose) (HPC)): 92 % of control
- T/C (endpoint: mean survival time, dose: 200.0 mg/kg/injection, schedule: Q01DX001 (ip), vehicle: Klucel (hydroxypropylcellulose) (HPC)): 94 % of control
